Experimental data as given in EPA's ToxValDB 9.5 (doi:10.2903/j.efsa.2015.3999).
“And” between values parts separate entries of the source, which are not always exact repeats. Equal values may be shown once.

Tests used:
Anas platyrhynchos = conditions: reproductive
Rattus norvegicus = conditions: for LD50: acute, mortality
Apis mellifera = conditions: acute, mortality
Daphnia magna = conditions: chronic/long-term; duration: 21 days; reproduction
Folsomia candida = conditions: chronic/long-term
Canidae = conditions: subchronic; duration: 90 days; oral; Dog Other; organ weight

COCC(=O)N(c1c(C)cccc1C)[C@H](C)C(=O)OC [Metalaxyl-M]
LC50 (Oncorhynchus mykiss; acute, duration: 96 hours, mortality): > 100 µg/mL | NOEC (Oncorhynchus mykiss; chronic/long-term, duration: 28 days, growth): 50 mg/L | LC50 (Tagia sp.; acute, duration: 14 days, mortality): 830 mg/kg | NOEC (Tagia sp.; chronic/long-term, duration: 8 weeks): 35.6 mg/kg | NOEL (Anas platyrhynchos): 117 mg/kg-day | LD50 (Rattus norvegicus; F): 375 mg/kg-day | LD50 (Rattus norvegicus; M): 953 mg/kg-day | NOAEL (Rattus norvegicus; reproduction developmental, body weight): 50 mg/kg-day | LD50 (Apis mellifera; dermal): > 100 µg/piece | LD50 (Apis mellifera; oral, unspecified): > 97.3 µg/piece | NOEC (Daphnia magna): 25 mg/L | NOEC (Folsomia candida): 125 mg/kg | LC50 (Colinus virginianus; acute, oral, diet, mortality): > 5620 mg/kg | LD50 (Colinus virginianus; acute, oral, mortality): 1420 mg/kg-day and 981 mg/kg-day and 1180 mg/kg-day | NOEL (Colinus virginianus; reproduction developmental): 8.4 mg/kg-day | NOAEL (Canidae): 8 mg/kg-day
